Experimental data from ChEMBL document CHEMBL5223092, “Antibacterial activities of plant-derived xanthones” (RSC Med Chem, 2022).
In brackets after ≈: the same amount, converted by molar mass.

Experiments:
[1] = tested on: Staphylococcus aureus; test: Antibacterial activity against methicillin resistant Staphylococcus aureus; type: functional
[2] = tested on: Staphylococcus aureus; test: Antibacterial activity against Staphylococcus aureus; type: functional
[3] = tested on: Escherichia coli; test: Antibacterial activity against Escherichia coli NIHJ K 12; type: functional
[4] = tested on: Staphylococcus aureus; test: Antibacterial activity against methicillin resistant Staphylococcus aureus by liquid dilution method; type: functional
[5] = tested on: Staphylococcus aureus; test: Antibacterial activity against Staphylococcus aureus NIHJ 209p; type: functional
[6] = tested on: Pseudomonas aeruginosa; test: Antibacterial activity against Pseudomonas aeruginosa TISTR 781 incubated for 16 to 18 hrs by Mueller-Hinton broth based two-fold serial dilution method; type: functional; settings: time 16-18 hrs
[7] = tested on: Micrococcus luteus; test: Antibacterial activity against Micrococcus luteus TISTR 1466 incubated for 16 to 18 hrs by Mueller-Hinton broth based two-fold serial dilution method; type: functional; settings: time 16-18 hrs
[8] = tested on: Salmonella typhimurium; test: Antibacterial activity against Salmonella typhimurium TISTR 292 incubated for 16 to 18 hrs by Mueller-Hinton broth based two-fold serial dilution method; type: functional, Salmonella enterica subsp. enterica serovar Typhimurium; settings: Salmonella enterica, time 16-18 hrs
[9] = tested on: Bacillus cereus; test: Antibacterial activity against Bacillus cereus TISTR 688 incubated for 16 to 18 hrs by Mueller-Hinton broth based two-fold serial dilution method; type: functional; settings: time 16-18 hrs
[10] = tested on: Escherichia coli; test: Antibacterial activity against Escherichia coli TISTR 780 incubated for 16 to 18 hrs by Mueller-Hinton broth based two-fold serial dilution method; type: functional; settings: time 16-18 hrs
[11] = tested on: Staphylococcus epidermidis; test: Antibacterial activity against Staphylococcus epidermidis ATCC 12228 incubated for 16 to 18 hrs by Mueller-Hinton broth based two-fold serial dilution method
[12] = tested on: Enterococcus faecalis; test: Antibacterial activity against Streptococcus faecalis incubated for 8 to 12 hrs by Alamar blue reagent based microdilution broth method; type: functional; settings: time 8-12 hrs
[13] = tested on: Salmonella typhi; test: Antibacterial activity against Salmonella typhi incubated for 8 to 12 hrs by Alamar blue reagent based microdilution broth method; type: functional, Salmonella enterica subsp. enterica serovar Typhi; settings: Salmonella enterica; time 8-12 hrs
[14] = tested on: Bacillus subtilis; test: Antibacterial activity against Bacillus subtilis incubated for 8 to 12 hrs by Alamar blue reagent based microdilution broth method; type: functional; settings: time 8-12 hrs
[15] = tested on: Pseudomonas aeruginosa; test: Antibacterial activity against Pseudomonas aeruginosa incubated for 8 to 12 hrs by Alamar blue reagent based microdilution broth method; type: functional; settings: time 8-12 hrs
[16] = tested on: Staphylococcus aureus; test: Antibacterial activity against Staphylococcus aureus TISTR 517 incubated for 8 to 12 hrs by Alamar blue reagent based microdilution broth method; type: functional; settings: time 8-12 hrs
[17] = Lipophilicity, logP of the compound; type: physicochemical; settings: octanol/water
[18] = tested on: Staphylococcus aureus; test: Antibacterial activity against Staphylococcus aureus TISTR 1466 by Mueller-Hinton broth based two-fold serial dilution method; type: functional
[19] = tested on: Staphylococcus aureus; test: Antibacterial activity against methicillin resistant Staphylococcus aureus SK1 by Mueller-Hinton broth based two-fold serial dilution method; type: functional
[20] = tested on: Bacillus subtilis; test: Antibacterial activity against Bacillus subtilis; type: functional
[21] = tested on: Escherichia coli; test: Antibacterial activity against Escherichia coli ATCC 25922 by Mueller-Hinton broth based two-fold serial dilution method; type: functional
[22] = tested on: Bacillus cereus; test: Antibacterial activity against Bacillus cereus; type: functional
[23] = tested on: Staphylococcus epidermidis; test: Antibacterial activity against Staphylococcus epidermidis DMST 15505 by Mueller-Hinton broth based two-fold serial dilution method; type: functional
[24] = tested on: Staphylococcus aureus; test: Antibacterial activity against Staphylococcus aureus TISTR 517 by Mueller-Hinton broth based two-fold serial dilution method; type: functional
[25] = tested on: Streptococcus pyogenes; test: Antibacterial activity against Streptococcus pyogenes DMST 17020 by Mueller-Hinton broth based two-fold serial dilution method; type: functional
[26] = tested on: Staphylococcus aureus; test: Antibacterial activity against methicillin resistant Staphylococcus aureus SK1 incubated for 16 to 18 hrs by agar microdilution method; type: functional; settings: time 16-18 hrs
[27] = tested on: Micrococcus luteus; test: Antibacterial activity against Micrococcus luteus; type: functional
[28] = tested on: Listeria monocytogenes; test: Antibacterial activity against Listeria monocytogenes DMST 17303 by Mueller-Hinton broth based two-fold serial dilution method; type: functional

Structure (SMILES): C=CC(C)(C)c1cc(O)c2oc3c(O)cccc3c(=O)c2c1O
- MIC [1]: 3.13 µg/mL (≈ 10 µM)
- MIC [2]: 6.25 µg/mL (≈ 20 µM)

Structure (SMILES): C=CC(C)(C)c1cc(O)c2oc3c(O)c(O)ccc3c(=O)c2c1O
- MIC [3]: 25 µg/mL (≈ 76.1 µM)
- MIC [4]: 25 µg/mL (≈ 76.1 µM)
- MIC [5]: 12.5 µg/mL (≈ 38.1 µM)

Structure (SMILES): CC1(C)CC(O)Oc2cc(O)c3c(=O)c4cccc(O)c4oc3c21 (stereo not given)
- MIC [6]: 16 µg/mL (≈ 48.7 µM)
- MIC [7]: 16 µg/mL (≈ 48.7 µM)
- MIC [8]: 32 µg/mL (≈ 97.5 µM)
- MIC [9]: 32 µg/mL (≈ 97.5 µM)
- MIC [10]: 32 µg/mL (≈ 97.5 µM)
- MIC [11]: 16 µg/mL (≈ 48.7 µM)

Structure (SMILES): CC(C)=CCc1c2c(c(O)c3c(=O)c4ccc(O)c(O)c4oc13)C=CC(C)(C)O2
- MIC [12]: 1.1 µg/mL (≈ 2.79 µM)
- MIC [13]: 1.1 µg/mL (≈ 2.79 µM)
- MIC [14]: 1.1 µg/mL (≈ 2.79 µM)
- MIC [15]: 9.3 µg/mL (≈ 23.6 µM)
- MIC [16]: 1.1 µg/mL (≈ 2.79 µM)

Structure (SMILES): CC(C)=CCC/C(C)=C/Cc1c2c(c3oc4c(O)cccc4c(=O)c3c1O)C=CC(C)(C)O2
- MIC [12]: 18.7 µg/mL (≈ 41.9 µM)
- MIC [13]: 4.6 µg/mL (≈ 10.3 µM)
- MIC [14]: 4.6 µg/mL (≈ 10.3 µM)
- MIC [15]: > 50 µg/mL
- MIC [16]: 2.3 µg/mL (≈ 5.15 µM)

Structure (SMILES): COc1cc2c(=O)c3c(O)cccc3oc2c(O)c1OC
- MIC [9]: 16 µg/mL (≈ 55.5 µM)
- logP [17]: 2.09
- MIC [11]: 16 µg/mL (≈ 55.5 µM)

Structure (SMILES): CC(C)=CCc1c(O)cc2oc3c(c(=O)c2c1O)C[C@H](CC=C(C)C)C(=O)[C@@]3(O)CC=C(C)C
- MIC [18]: 2 µg/mL (≈ 4.29 µM)
- MIC [19]: 2 µg/mL (≈ 4.29 µM)

Structure (SMILES): COc1c(O)cc2oc3cc4c(c(O)c3c(=O)c2c1CC=C(C)C)CC(C(C)(C)O)O4 (stereo not given)
- MIC [20]: 2 µg/mL (≈ 4.69 µM)
- MIC [21]: 25 µg/mL (≈ 58.6 µM)
- MIC [22]: 8 µg/mL (≈ 18.8 µM)
- MIC [23]: 25 µg/mL (≈ 58.6 µM)
- MIC [24]: 12.5 µg/mL (≈ 29.3 µM)
- MIC [25]: 3.13 µg/mL (≈ 7.34 µM)
- MIC [26]: 4 µg/mL (≈ 9.38 µM)
- MIC [27]: 12.5 µg/mL (≈ 29.3 µM)
- MIC [28]: 0.78 µg/mL (≈ 1.83 µM)
